Columns and labels:
Assay in all cases: relative viability (nuclei count vs DMSO), 5 days (fraction); higher = more cells survive
Etoposide + Alpelisib = compound: COc1cc([C@@H]2c3cc4c(cc3[C@@H](O[C@@H]3O[C@@H]5CO[C@@H](C)O[C@H]5[C@H](O)[C@H]3O)[C@H]3COC(=O)[C@H]23)OCO4)cc(OC)c1O [Etoposide] + Cc1nc(NC(=O)N2CCC[C@H]2C(N)=O)sc1-c1ccnc(C(C)(C)C(F)(F)F)c1 [Alpelisib] (partner 2 µM)
Procedure, shortened: (§1)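 After 5 days of treatment, lung cancer cells in 1536-well plates were fixed and stained in a single step (final 0.05% Triton X-100, 1% formaldehyde, 1 ug/ml Hoechst) and their nuclei counted on 4× images. Treatment had been applied by pin tool the day after seeding as one drug alone or as a fixed anchor-drug dose with five library-drug doses (not always all listed) in √10 steps. Relative viability is the nuclei count of treated wells divided by that of vehicle wells, and values are medians of duplicate plates.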

Etoposide + Olaparib = compound: COc1cc([C@@H]2c3cc4c(cc3[C@@H](O[C@@H]3O[C@@H]5CO[C@@H](C)O[C@H]5[C@H](O)[C@H]3O)[C@H]3COC(=O)[C@H]23)OCO4)cc(OC)c1O [Etoposide] + O=C(c1cc(Cc2n[nH]c(=O)c3ccccc23)ccc1F)N1CCN(C(=O)C2CC2)CC1 [Olaparib] (partner 8 µM)
Procedure, shortened: as §1

Bleomycin + Lapatinib = compound: CC1=C(N=C(N=C1N)[C@H](CC(=O)N)NC[C@@H](C(=O)N)N)C(=O)N[C@@H]([C@H](C2=CN=CN2)OC3C(C(C(C(O3)CO)O)O)OC4C(C(C(C(O4)CO)O)OC(=O)N)O)C(=O)N[C@H](C)[C@H]([C@H](C)C(=O)N[C@@H]([C@@H](C)O)C(=O)NCCC5=NC(=CS5)C6=NC(=CS6)C(=O)NCCC[S+](C)C)O [Bleomycin] + CS(=O)(=O)CCNCc1ccc(-c2ccc3ncnc(Nc4ccc(OCc5cccc(F)c5)c(Cl)c4)c3c2)o1 [Lapatinib] (partner 2 µM); conditions: main component drawn
Procedure, shortened: as §1

Etoposide + Tozasertib = compound: COc1cc([C@@H]2c3cc4c(cc3[C@@H](O[C@@H]3O[C@@H]5CO[C@@H](C)O[C@H]5[C@H](O)[C@H]3O)[C@H]3COC(=O)[C@H]23)OCO4)cc(OC)c1O [Etoposide] + Cc1cc(Nc2cc(N3CCN(C)CC3)nc(Sc3ccc(NC(=O)C4CC4)cc3)n2)n[nH]1 [Tozasertib] (partner 0.1 µM)
Procedure, shortened: as §1

Cell Line	relative viability (Etoposide + Alpelisib; first compound 0.03162 µM)	relative viability (Etoposide + Alpelisib; first compound 0.1 µM)	relative viability (Etoposide + Alpelisib; first compound 0.3162 µM)	relative viability (Etoposide + Alpelisib; first compound 1 µM)	relative viability (Etoposide + Olaparib; first compound 0.01 µM)	relative viability (Etoposide + Olaparib; first compound 0.03162 µM)	relative viability (Etoposide + Olaparib; first compound 0.1 µM)	relative viability (Etoposide + Olaparib; first compound 0.3162 µM)	relative viability (Etoposide + Olaparib; first compound 1 µM)	relative viability (Bleomycin + Lapatinib; first compound 0.01 µM)	relative viability (Bleomycin + Lapatinib; first compound 0.03162 µM)	relative viability (Bleomycin + Lapatinib; first compound 0.1 µM)	relative viability (Bleomycin + Lapatinib; first compound 0.3162 µM)	relative viability (Bleomycin + Lapatinib; first compound 1 µM)	relative viability (Etoposide + Tozasertib; first compound 0.01 µM)	relative viability (Etoposide + Tozasertib; first compound 0.03162 µM)	relative viability (Etoposide + Tozasertib; first compound 0.1 µM)	relative viability (Etoposide + Tozasertib; first compound 0.3162 µM)	relative viability (Etoposide + Tozasertib; first compound 1 µM)	relative viability (Etoposide + Alpelisib; first compound 0.01 µM)
LCLC-97TM1	0.309	0.132	0.139	0.107	0.423	0.458	0.229	0.113	0.0808	0.264	0.288	0.151	0.168	0.093	0.201	0.2	0.208	0.19	0.144	
LK-2	1.12	0.71	0.764	0.288	0.618	0.81	0.511	0.287	0.205	0.66	0.488	0.542	0.261	0.248	0.207	0.175	0.18	0.21	0.205	1.01
LOU-NH91	0.744	0.593	0.62	0.469	0.893	0.905	0.824	0.651	0.383	0.679	0.609	0.51	0.361	0.298	0.713	0.673	0.566	0.554	0.341	0.7
LU99A	0.629	0.331	0.24	0.143	0.277	0.28	0.205	0.139	0.118	0.58	0.742	0.271	0.138	0.108	0.283	0.277	0.262	0.247	0.241	0.522
LXF-289	1.07	1.04	0.655	0.244	1.1	1.07	0.954	0.234	0.1	0.807	0.884	0.635	0.206	0.179	0.209	0.166	0.196	0.111	0.0978	1.02
NCI-H23	0.654	0.358	0.364	0.236	0.263	0.283	0.295	0.174	0.166	0.419	0.314	0.268	0.197	0.165	0.344	0.333	0.29	0.201	0.163	0.578
NCI-H322M	0.786	0.663	0.658	0.472	0.781	0.764	0.725	0.548	0.508	0.467	0.551	0.543	0.383	0.348	0.484	0.47	0.423	0.441	0.425	0.712
NCI-H358	0.809	0.646	0.246	0.159	0.692	0.519	0.521	0.104	0.0937	0.381	0.466	0.354	0.256	0.254	0.112	0.107	0.107	0.0887	0.0917	0.873
NCI-H460	0.355	0.272	0.0559	0.0284	0.395	0.314	0.247	0.0642	0.047	0.296	0.29	0.0624	0.0161	0.0213	0.396	0.369	0.338	0.0692	0.0251	0.479
NCI-H520	0.925	0.965	0.836	0.906	0.296	0.328	0.437	0.293	0.225	0.715	0.79	0.833	0.54	0.43	0.427	0.408		0.462	0.396	0.873
NCI-H596	0.491		0.457	0.425	0.64	0.698	0.724	0.537	0.561	0.852	0.742	0.547	0.416	0.452	0.774	1.05	0.843	0.543	0.683	0.383
NCI-H647	1.22	1.02	0.429	0.125	0.459	0.516	0.33	0.0871	0.0592	0.353	0.336	0.191	0.0899	0.0986	0.224	0.0009	0.271	0.205	0.112	1.19
NCI-H650	0.977	0.949	0.5	0.24	0.393	0.317	0.314	0.184	0.152	0.537	0.748	0.686	0.318	0.21	0.693	0.717	0.498	0.258	0.166	0.945
NCI-H661	0.61	0.413	0.388	0.3	0.776	0.819	0.686	0.463	0.471	0.501	0.374	0.349	0.204	0.219	0.342	0.374	0.332	0.323	0.353	0.995
NCI-H727	0.524	0.566	0.58	0.423	0.681	0.632	0.55	0.689	0.478	0.718	0.781	0.695	0.204	0.472	0.623	0.677		0.605	0.692	0.616
NCI-H838	1.08	0.887	0.666	0.387	0.757	0.782	0.64	0.31	0.2	0.478	0.229	0.184	0.159	0.152	0.348	0.295	0.307	0.211	0.24	0.951
NCI-H1355	0.969	0.343	0.53	0.304	0.682	0.769	0.574	0.332	0.221	0.901	1.15	0.837	0.337	0.257	0.515	0.536	0.433	0.313	0.228	0.811
NCI-H1395	1.14	0.773	0.798	0.69	0.444	0.453	0.458	0.479	0.397	0.965	0.841	0.711	0.417	0.397	0.616	0.758	0.665	0.74	0.592	1.02
NCI-H1437	0.945	0.883	0.42	0.256	0.597	0.646	0.56	0.394	0.323	0.711	0.743	0.775	0.296	0.373	0.433	0.4	0.429	0.293	0.318	0.915
NCI-H1651	0.833	0.984	0.511	0.24	0.175	0.188	0.202	0.138	0.0965	0.75	0.653	0.595	0.229	0.149	0.675	0.692	0.547	0.159	0.156	0.844
NCI-H1666	0.931	0.69	0.315	0.28	0.702	0.642	0.758	0.529	0.497	0.607	0.417	0.344	0.247	0.288	0.551	0.592	0.485	0.356	0.372	0.929
NCI-H1734	0.822	0.509	0.517	0.381	0.285	0.607	0.589	0.373	0.263	0.802	0.854	0.691	0.268	0.184	0.269	0.254	0.279	0.273	0.24	0.698
NCI-H1755	0.907	0.888	0.871	0.639	0.838	0.945	0.791	0.799	0.422	0.91	1.03	0.92	0.631	0.578	0.57	0.577	0.565	0.483	0.44	0.919
NCI-H1793	0.78		0.718	0.341		0.861	0.608	0.454	0.295	0.729	0.567	0.544	0.275	0.219	0.324	0.311		0.316	0.185	0.563
NCI-H1915	1.17	0.967	0.99	0.631	0.261	0.268	0.309	0.213	0.194	0.669	0.771	0.385	0.192	0.15	0.438	0.459	0.473	0.353	0.308	0.999
NCI-H1944	0.969	0.645	0.564	0.249	0.378	0.417	0.305	0.265	0.197	0.533	0.41	0.355	0.242	0.151	0.258	0.278	0.211	0.182	0.168	0.742
NCI-H1975	0.822	0.693	0.56	0.273	0.688	1.02	0.881	0.487	0.252	0.657	0.551	0.542	0.25	0.213	0.721	0.67	0.785	0.495	0.197	0.621
NCI-H1993	0.719	0.649	0.624	0.533		0.884	0.777	0.658	0.54	0.732	0.736	0.754	0.656	0.609	0.634	0.506	0.576	0.495	0.55	0.741
NCI-H2009	1.18	1.19	1.06	0.388	0.64	0.627	0.692	0.45	0.275	0.808	0.892	0.92	0.379	0.365	0.767	0.745	0.782	0.557	0.431	1.12
NCI-H2023	0.615	0.543	0.388	0.138	0.415	0.452	0.356	0.137	0.111	0.521	0.664	0.506	0.19	0.101	0.308	0.337	0.429	0.291	0.109	0.597
